The values below are quoted from earlier work in patent publication US20240209370A1, “METHODS OF MODULATING ALK” (SOCIETE DES PRODUITS NESTLE S.A., priority 2017, published 2024).

In the data set the target is ALK (Homo sapiens, UniProt Q9UM73). To be noted: effect on ALK activity or expression as listed from ctdbase, Medline or cited patents.
Chain of ALK (Q9UM73 19-1620): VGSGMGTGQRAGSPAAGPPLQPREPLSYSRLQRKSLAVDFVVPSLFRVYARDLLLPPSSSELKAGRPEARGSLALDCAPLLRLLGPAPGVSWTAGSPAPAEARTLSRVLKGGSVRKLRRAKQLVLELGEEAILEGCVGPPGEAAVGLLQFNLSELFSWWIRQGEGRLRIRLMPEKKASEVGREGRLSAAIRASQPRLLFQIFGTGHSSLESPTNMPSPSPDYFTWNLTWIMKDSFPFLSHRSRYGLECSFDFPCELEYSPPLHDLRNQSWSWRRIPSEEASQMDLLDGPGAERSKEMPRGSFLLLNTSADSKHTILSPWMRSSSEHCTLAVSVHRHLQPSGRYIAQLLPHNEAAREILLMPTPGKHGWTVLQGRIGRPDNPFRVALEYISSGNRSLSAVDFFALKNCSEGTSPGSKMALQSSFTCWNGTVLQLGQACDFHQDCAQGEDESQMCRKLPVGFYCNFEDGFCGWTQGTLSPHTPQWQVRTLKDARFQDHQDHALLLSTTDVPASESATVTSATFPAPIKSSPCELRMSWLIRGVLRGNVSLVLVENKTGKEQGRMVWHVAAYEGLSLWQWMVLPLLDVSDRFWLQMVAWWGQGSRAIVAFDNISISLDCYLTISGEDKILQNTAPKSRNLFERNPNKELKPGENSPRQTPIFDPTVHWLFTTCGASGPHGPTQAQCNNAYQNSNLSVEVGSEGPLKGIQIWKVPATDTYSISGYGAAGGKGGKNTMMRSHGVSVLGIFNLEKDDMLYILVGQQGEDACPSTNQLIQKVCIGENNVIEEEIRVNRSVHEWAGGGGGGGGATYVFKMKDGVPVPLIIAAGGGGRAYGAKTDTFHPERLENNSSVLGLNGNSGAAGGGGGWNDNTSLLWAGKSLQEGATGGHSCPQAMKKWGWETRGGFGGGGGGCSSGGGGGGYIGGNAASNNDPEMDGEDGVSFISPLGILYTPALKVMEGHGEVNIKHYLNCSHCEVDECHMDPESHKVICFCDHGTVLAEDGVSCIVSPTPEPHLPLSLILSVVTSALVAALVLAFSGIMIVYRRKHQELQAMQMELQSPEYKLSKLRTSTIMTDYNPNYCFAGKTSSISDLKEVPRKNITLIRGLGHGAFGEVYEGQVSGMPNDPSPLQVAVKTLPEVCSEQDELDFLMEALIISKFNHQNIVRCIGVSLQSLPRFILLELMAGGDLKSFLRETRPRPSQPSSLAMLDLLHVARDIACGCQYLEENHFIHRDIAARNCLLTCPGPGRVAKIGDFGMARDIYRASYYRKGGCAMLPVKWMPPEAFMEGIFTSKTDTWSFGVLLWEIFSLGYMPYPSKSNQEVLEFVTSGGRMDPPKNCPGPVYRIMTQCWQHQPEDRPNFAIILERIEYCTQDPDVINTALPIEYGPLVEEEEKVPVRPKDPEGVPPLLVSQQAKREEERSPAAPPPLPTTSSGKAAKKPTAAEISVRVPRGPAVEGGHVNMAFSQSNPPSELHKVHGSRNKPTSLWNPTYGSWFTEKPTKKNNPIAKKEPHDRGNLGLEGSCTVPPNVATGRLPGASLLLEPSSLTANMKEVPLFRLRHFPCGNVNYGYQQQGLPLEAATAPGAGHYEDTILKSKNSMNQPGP

For the molecule `CS(=O)(=O)CCNCc1ccc(-c2ccc3ncnc(Nc4ccc(OCc5cccc(F)c5)c(Cl)c4)c3c2)o1` [lapatinib], the “Interaction Actions” value is on record as “inhibit”.
Consider `C[C@]12CCC(=O)C=C1CC[C@@H]1[C@@H]2[C@@H](O)C[C@@]2(C)[C@H]1CC[C@]2(O)C(=O)CO` [hydrocortisone], for which the “Interaction Actions” value was “suppress”.
In the case of `COc1cc2nccc(Oc3ccc(NC(=O)Nc4cc(C)on4)c(Cl)c3)c2cc1OC` [tivozanib], the “Interaction Actions” value is recorded as “inhibit”.
Turning to `CC1=C(/C=C/C(C)=C/C=C/C(C)=C/C(=O)O)C(C)(C)CCC1` [Tretinoin], the “Interaction Actions” value is listed as “decreases expression”.
Consider `Cc1cc(Nc2ncc(Cl)c(Nc3ccccc3S(=O)(=O)C(C)C)n2)c(OC(C)C)cc1C1CCNCC1` [ceritinib], for which the “Interaction Actions” value is given as “inhibit”.
Turning to `C[C@H](Cc1ccc(O)c(O)c1)[C@@H](C)Cc1ccc(O)c(O)c1` [Masoprocol], the “Interaction Actions” value is reported as “decreases activity”.
For the molecule `c1cncnc1` [pyrimidine], the “Interaction Actions” value is reported as “inhibit”.
Regarding `O=S(=O)(O)OC[C@H]1O[C@@](COS(=O)(=O)O)(O[C@H]2O[C@H](COS(=O)(=O)O)[C@@H](OS(=O)(=O)O)[C@H](OS(=O)(=O)O)[C@H]2OS(=O)(=O)O)[C@@H](OS(=O)(=O)O)[C@@H]1OS(=O)(=O)O` [sucrose octasulfate], the “Interaction Actions” value was “inhibit”.
Regarding heparin, the “Interaction Actions” value is “terminate”.
Turning to `COc1cc2c(Oc3ccc(NC(=O)C4(C(=O)Nc5ccc(F)cc5)CC4)cc3F)ccnc2cc1OCCCN1CCOCC1` [foretinib], the “Interaction Actions” value is “inhibit”.
As for `C[C@H]1c2cccc(O)c2C(O)=C2C(=O)[C@]3(O)C(O)=C(C(N)=O)C(=O)[C@@H](N(C)C)[C@@H]3[C@@H](O)[C@@H]21` [vibramycin], the “Interaction Actions” value is given as “inhibit”.
Take `CO[C@H]1[C@@H](OC)C[C@H](C)[C@@H](OC)C2=CC(=O)C=C(NC(=O)/C(C)=C/C=C\[C@H](OC)[C@@H](OC(N)=O)/C(C)=C/[C@@H]1C)C2=O` [herbimycin]: the “Interaction Actions” value is given as “inhibit”.
On to `CO[C@H]1C[C@@H]2CC[C@@H](C)[C@@](O)(O2)C(=O)C(=O)N2CCCC[C@H]2C(=O)O[C@H]([C@H](C)C[C@@H]2CC[C@@H](OCCO)[C@H](OC)C2)CC(=O)[C@H](C)/C=C(\C)[C@@H](O)[C@@H](OC)C(=O)[C@H](C)C[C@H](C)/C=C/C=C/C=C/1C` [everolimus], for which the “Interaction Actions” value is listed as “inhibit”.
With `CC(=O)N[C@@H](CS)C(=O)O` [Acetylcysteine], the “Interaction Actions” value is on record as “affects activity”.
Turning to `Cc1cc(O)c2c(c1)C(=O)c1cc(O)cc(O)c1C2=O` [emodin], the “Interaction Actions” value was “inhibit”.
